Results on nine compounds are retold here after US20230250077A1, “SULFONYLBENZAMIDE DERIVATIVE AND CONJUGATE THEREOF, PREPARATION METHOD THEREFOR AND USE THEREOF” (Jiangsu Hengrui Pharmaceuticals Co., Ltd., priority 2020, published 2023).

Molecules are shown by their SMILES. pKi: −log10 of the molar value.

The target in one assay is T1, BCL-xL (Homo sapiens, UniProt Q07817).
T1 construct: purchased R&D 894-BX-050
The experiment in a line: Binding activity for BCL-xL (HTRF, biotin-labeled BIM). Particulars: His-tagged BCL-xL. The procedure: In vitro BCL-xL-binding activity was tested by the following method.
Reagents used in this experiment: His-tagged BCL-xL protein (R&D, Cat #894-BX-050); biotin-labeled BIM protein (R&D, Cat #3526/1); binding buffer (cisbio, Cat #62DLBDDF); assay buffer (cisbio, Cat #62DB1FDG); MAb anti-6His-Eu cryptate (cisbio, Cat #61HI2KLA); and affinity streptomycin linked XL665 (cisbio, Cat #611SAXLA).
The in vitro binding assay described below can determine the binding activity of test compounds for BCL-xL.
The test compounds were dissolved in dimethyl sulfoxide and diluted to gradient concentrations as required for the experiment, and the compounds at various concentrations formulated in dimethyl sulfoxide were subjected to a 100-fold dilution with a binding buffer. BCL-xL was diluted to the corresponding concentration with a binding buffer, and added to a white 384-well plate at 4 μL/well. Then the diluted test compound was added to the white 384-well plate at 2 μL/well. The plate was incubated at 25° C. for 1 h after the mixture was uniformly mixed. Biotin-labeled BIM protein was diluted to the corresponding concentration with a binding buffer, and added to a white 384-well plate at 4 μL/well. The plate was incubated at 25° C. for 2 h after the mixture was uniformly mixed. The MAb anti-6His-Eu cryptate and the affinity streptomycin linked XL665 were each diluted to the corresponding concentration with an assay buffer, and added to a white 384-well plate at 5 μL/well. The plate was incubated at 25° C. for 2-4 h after the mixture was uniformly mixed. The signal values were read with the HTRF program in a microplate reader (BMG Labtech, model: PHERAstar FS).
For orientation: In TR-FRET formats the signal depends on donor and acceptor labels being close together.

In another assay the target is T2, BCL-2 (Homo sapiens, UniProt P10415).
T2 construct: purchased R&D systems 827-BC-050
T2 sequence (P10415 whole entry): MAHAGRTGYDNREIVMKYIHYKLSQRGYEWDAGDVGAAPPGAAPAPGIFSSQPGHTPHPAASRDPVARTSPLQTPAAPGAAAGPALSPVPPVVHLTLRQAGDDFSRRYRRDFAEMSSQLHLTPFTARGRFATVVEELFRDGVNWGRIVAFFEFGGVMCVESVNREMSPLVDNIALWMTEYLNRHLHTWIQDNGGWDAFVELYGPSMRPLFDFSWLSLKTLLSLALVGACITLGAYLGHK
The experiment in a line: Binding activity for BCL-2 (HTRF, biotin-labeled BIM). The conditions noted are these: His-tagged BCL-2, biotin-labeled BIM. The procedure:
In vitro BCL-2-binding activity was tested by the following method.
Reagents used in this experiment: His-tagged BCL-2 protein (R&D systems, Cat #827-BC-050); biotin-labeled BIM protein (R&D, Cat #3526/1); binding buffer (cisbio, Cat #62DLBDDF); assay buffer (cisbio, Cat #62DB1FDG); MAb anti-6His-Eu cryptate (cisbio, Cat #61HI2KLA); and affinity streptomycin linked XL665 (cisbio, Cat #611SAXLA).
The in vitro binding assay described below can determine the binding activity of test compounds for BCL-2.
The test compounds were dissolved in dimethyl sulfoxide and diluted to gradient concentrations as required for the experiment, and the compounds at various concentrations formulated in dimethyl sulfoxide were subjected to a 100-fold dilution with a binding buffer. BCL-2 was diluted to the corresponding concentration with a binding buffer solution, and added to a white 384-well plate at 4 μL/well. Then the diluted test compound was added into the white 384-well plate at 2 μL/well. The plate was incubated at 25° C. for 1 h after the mixture was uniformly mixed. Biotin-labeled BIM protein was diluted to the corresponding concentration with a binding buffer, and added to a white 384-well plate at 4 μL/well. The plate was incubated at 25° C. for 2 h after the mixture was uniformly mixed. The MAb anti-6His-Eu cryptate and the affinity streptomycin linked XL665 were each diluted to the corresponding concentration with an assay buffer, and added to a white 384-well plate at 5 μL/well. The plate was incubated at 25° C. for 2-4 h after the mixture was uniformly mixed. The signal values were read with the HTRF program in a microplate reader (BMG Labtech, model: PHERAstar FS).

A further assay concerns RS4;11 cells. The experiment in a line: Inhibition of proliferation of RS4;11 cells (CellTiter-Glo). Particulars: Homo sapiens, 72 h, 3 days, read-out: Inhibitory activity IC50 (nM) for the proliferation of RS4;11 cells. Format: cell-based. The method, then: (§1) In vitro inhibitory activity for the proliferation of RS4;11 cells and NCI-H146 cells was tested by the following method.
(§2) Reagents used in this experiment: RPMI-1640 medium (HyCLone, Cat #SH30243018); fetal bovine serum (Gibco, Cat #10099-141); pancreatin (Gibco, Cat #25200-072); Cell Titer-Glo (Promega, Cat #G7571).
(§3) Materials used: RS4;11 cells (Nanjing Kebai Biotechnology Co., Ltd, Cat #CBP60641); and NCI-H146 cells (ATCC, Cat #HTB-173).
(§4) The in vitro cell proliferation assay described below can determine the inhibitory activity of the test compounds for the proliferation of RS4;11 cells and NCI-H146 cells.
(§5) RS4;11 cells (or NCI-H146 cells) were cultured in an RPMI-1640 culture medium containing 10% FBS, and were passaged for 2-3 times a week in a passage ratio of 1:3 or 1:5. During passage, the cells were transferred to a centrifuge tube, and centrifuged at 1200 rpm for 3 min. The supernatant was discarded, and fresh culture medium was added to resuspend the cells. 90 μL of cell suspension was added to a 96-well cell culture plate, wherein RS4;11 cells and NCI-H146 cells were added at a density of 2.22×10^5 cells/mL. Only 100 μL of complete medium (RPMI-1640 medium containing 10% FBS) was added to the periphery of the 96-well plate. The plate was incubated in an incubator for 24 h (37° C., 5% CO2).
(§6) The test sample was diluted to a proper concentration gradient with dimethyl sulfoxide as required for the experiment. 5 μL of the solution of the test compound prepared in a gradient concentration was added to 95 μL of fresh culture medium and mixed uniformly, and then 10 μL of the culture medium containing the above compound was added to a cell culture plate. The cell culture plate was incubated in an incubator for 3 days (37° C., 5% CO2). 50 μL of CellTiter-Glo reagent was added into each well of the 96-well cell culture plate. The plate was let stand for 5-10 min away from the light at room temperature. The chemiluminescence signals were read by a microplate reader (BMG Labtech, model: PHERAstar FS) and the data were processed by GraphPad software.
In general terms: ATP-based viability assays read luminescence as a measure of living cells.

Another assay concerns NCI-H146 cells. The experiment in a line: Inhibition of proliferation of NCI-H146 cells (CellTiter-Glo). Format: cell-based. Particulars: Homo sapiens, 72 h, 3 days, read-out: Inhibitory activity IC50 (nM) for the proliferation of NCI-H146 cells. The method, then: as §1, §2, §3, §4, §5, §6

T1 sequence (Q07817 whole entry): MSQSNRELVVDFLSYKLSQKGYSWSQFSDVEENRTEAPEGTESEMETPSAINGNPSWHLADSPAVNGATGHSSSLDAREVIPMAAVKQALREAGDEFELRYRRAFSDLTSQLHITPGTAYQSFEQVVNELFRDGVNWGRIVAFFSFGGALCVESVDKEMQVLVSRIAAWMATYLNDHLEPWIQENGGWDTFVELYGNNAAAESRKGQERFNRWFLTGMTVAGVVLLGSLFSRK

What is called pKi is the Ki on a negative log10 scale, so that one unit is a factor of ten. The low end stands for a high Ki, the high end for a low Ki. With `O=C(NS(=O)(=O)c1ccc(N[C@@H](CSc2ccccc2)C[C@H]2CCCN2)c(S(=O)(=O)C(F)(F)F)c1)c1ccc(N2CCC([C@@H](O)c3ccccc3-c3ccc(Cl)cc3)CC2)cc1` [Example 2-1, 4-(4-((R)-(4′-chloro-[1,1′-biphenyl]-2-yl)(hydroxy)methyl)piperidin-1-yl)-N-((4-(((R)-1-(phenylthio)-3-((R)-pyrrolidin-2-yl)propan-2-yl)amino)-3-((trifluoromethyl)sulfonyl)phenyl)sulfonyl)benzamide], the results for the pKi on BCL-xL and on BCL-2 were 10.05 and 10.15, respectively. Further, the IC50 worked out at 23 nM with RS4;11 cells and 36 nM in the assay on NCI-H146 cells.

For `O=C(NS(=O)(=O)c1ccc(N[C@@H](CSc2ccccc2)C[C@H]2CCCN2CCO)c(S(=O)(=O)C(F)(F)F)c1)c1ccc(N2CCC([C@@H](O)c3ccccc3-c3ccc(Cl)cc3)CC2)cc1` [Example 2-2, 4-(4-((R)-(4′-chloro-[1,1′-biphenyl]-2-yl)(hydroxy)methyl)piperidin-1-yl)-N-((4-(((R)-1-((R)-1-(2-hydroxyethyl)pyrrolidin-2-yl)-3-(phenylthio)propan-2-yl)amino)-3-((trifluoromethyl)sulfonyl)phenyl)sulfonyl)benzamide], the pKi at BCL-xL is 9.62; on BCL-2, 10.15. Also, the IC50 in the assay with RS4;11 cells is 7 nM; with NCI-H146 cells it was 33 nM.

Consider `CO[C@@H](c1ccccc1-c1ccc(Cl)cc1)C1CCN(c2ccc(C(=O)NS(=O)(=O)c3ccc(N[C@@H](CSc4ccccc4)C[C@H]4CCCN4)c(S(=O)(=O)C(F)(F)F)c3)cc2)CC1` [Example 2-3, 4-(4-((R)-(4′-chloro-[1,1′-biphenyl]-2-yl)(methoxy)methyl)piperidin-1-yl)-N-((4-(((R)-1-(phenylthio)-3-((R)-pyrrolidin-2-yl)propan-2-yl)amino)-3-((trifluoromethyl)sulfonyl)phenyl)sulfonyl)benzamide], for which the pKi on BCL-xL is 9.77; on BCL-2, 10.00. For the same compound, the IC50 in the assay on RS4;11 cells came to 58 nM; in the assay on NCI-H146 cells, 74 nM.

On to `CO[C@@H](c1ccccc1-c1ccc(Cl)cc1)C1CCN(c2ccc(C(=O)NS(=O)(=O)c3ccc(N[C@@H](CSc4ccccc4)C[C@H]4CCCN4CCO)c(S(=O)(=O)C(F)(F)F)c3)cc2)CC1` [Example 2-4, 4-(4-((R)-(4′-chloro-[1,1′-biphenyl]-2-yl)(methoxy)methyl)piperidin-1-yl)-N-((4-(((R)-1-((R)-1-(2-hydroxyethyl)pyrrolidin-2-yl)-3-(phenylthio)propan-2-yl)amino)-3-((trifluoromethyl)sulfonyl)phenyl)sulfonyl)benzamide], for which the results for the pKi at BCL-xL and at BCL-2 were 9.49 and 9.89, respectively. Also, the IC50 amounted to 34 nM in the assay on RS4;11 cells and 94 nM in the assay with NCI-H146 cells.

For the compound `O=C(NS(=O)(=O)c1ccc(N[C@@H](CSc2ccccc2)C[C@H]2CCCN2CCCO)c(S(=O)(=O)C(F)(F)F)c1)c1ccc(N2CCC([C@@H](O)c3ccccc3-c3ccc(Cl)cc3)CC2)cc1` [Example 2-5, 4-(4-((R)-(4′-chloro-[1,1′-biphenyl]-2-yl)(hydroxy)methyl)piperidin-1-yl)-N-((4-(((R)-1-((R)-1-(3-hydroxypropyl)pyrrolidin-2-yl)-3-(phenylthio)propan-2-yl)amino)-3-((trifluoromethyl)sulfonyl)phenyl)sulfonyl)benzamide], the pKi was 9.35 at BCL-xL and 9.89 on BCL-2. Also, the values for the IC50 with RS4;11 cells and in the assay on NCI-H146 cells were 9 nM and 55 nM, respectively.

At BCL-2, `CC(Sc1ccccc1)[C@@H](CCN(C)CCO)Nc1ccc(S(=O)(=O)NC(=O)c2ccc(N3CCC([C@@H](O)c4ccccc4-c4ccc(C(F)(F)F)cc4)CC3)cc2)cc1S(=O)(=O)C(F)(F)F` (stereo partly drawn) [Example 2-7, 4-(4-((R)-hydroxy(4′-(trifluoromethyl)-[1,1′-biphenyl]-2-yl)methyl)piperidin-1-yl)-N-((4-(((3R)-1-((2-hydroxyethyl)(methyl)amino)-4-(phenylthio)pentan-3-yl)amino)-3-((trifluoromethyl)sulfonyl)phenyl)sulfonyl)benzamide] gave a negative-log Ki (pKi) of 9.47.

For the compound `O=C(NS(=O)(=O)c1ccc(N[C@@H](CSc2ccccc2)C[C@@H]2CCCN2)c(S(=O)(=O)C(F)(F)F)c1)c1ccc(N2CCC([C@@H](O)c3ccccc3-c3ccc(Cl)cc3)CC2)cc1` [Example 2-8, 4-(4-((R)-(4′-chloro-[1,1′-biphenyl]-2-yl)(hydroxy)methyl)piperidin-1-yl)-N-((4-(((R)-1-(phenylthio)-3-((S)-pyrrolidin-2-yl)propan-2-yl)amino)-3-((trifluoromethyl)sulfonyl)phenyl)sulfonyl)benzamide], the pKi on BCL-xL is 9.52; on BCL-2 it was 9.96. The results for the IC50 in the assay with RS4;11 cells and in the assay on NCI-H146 cells were 18 nM and 46 nM, respectively.

As to `O=C(NS(=O)(=O)c1ccc(N[C@@H](CSc2ccccc2)C[C@@H]2CCCN2CCCO)c(S(=O)(=O)C(F)(F)F)c1)c1ccc(N2CCC([C@@H](O)c3ccccc3-c3ccc(Cl)cc3)CC2)cc1` [Example 2-11, 4-(4-((R)-(4′-chloro-[1,1′-biphenyl]-2-yl)(hydroxy)methyl)piperidin-1-yl)-N-((4-(((R)-1-((S)-1-(3-hydroxypropyl)pyrrolidin-2-yl)-3-(phenylthio)propan-2-yl)amino)-3-((trifluoromethyl)sulfonyl)phenyl)sulfonyl)benzamide], the pKi at BCL-xL was 10.00; on BCL-2, 10.40. Besides, the IC50 in the assay with RS4;11 cells was 5 nM; in the assay with NCI-H146 cells, 16 nM.

Take `O=C(NS(=O)(=O)c1ccc(N[C@@H](CSc2ccccc2)C[C@@H]2CCCN2)c(S(=O)(=O)C(F)(F)F)c1)c1ccc(N2CCC([C@@H](O)c3ccccc3-c3ccc(C(F)(F)F)cc3)CC2)cc1` [Example 2-12, 4-(4-((R)-hydroxy(4′-(trifluoromethyl)-[1,1′-biphenyl]-2-yl)methyl)piperidin-1-yl)-N-((4-(((R)-1-(phenylthio)-3-((S)-pyrrolidin-2-yl)propan-2-yl)amino)-3-((trifluoromethyl)sulfonyl)phenyl)sulfonyl)benzamide]: the pKi was 9.82 on BCL-xL and 10.40 at BCL-2.
